Source: patent US20200255838A1, “Selenium Cancer Therapy” (University of Massachusetts, priority 2017, published 2020)

How the values were obtained:
Format in all cases: cell-based
[1] = test system: MDAMB468 and MDAMB231 cell lines; test: Hydrogen selenide gas toxicity assay; conditions: gas from sodium selenide in 10% hydrochloric acid, 96-well plate
Method: We developed a novel gas toxicity assay in which hydrogen selenide was produced in one well of a 96-well plate and the toxic effects were measured in an adjacent well. As described, SEPHS2 KO or control KO was achieved via pLENTICRISPR lentiviral transduction, and then cells were subjected to hydrogen selenide gas toxicity. Hydrogen selenide gas was formed by dissolving sodium selenide in an acidic (10% Hydrochloric Acid) solution in the central wells of a 96-well culture plate. SEPHS2 KO and CTRL cells (for MDAMB468 and MDAMB231 cell lines) were pre-seeded at various distances from the source of hydrogen gas toxicity (distances were equal under both conditions). The viability of each set of cells was averaged and relative viability of the SEPHS2 KO cells relative to control KO cells for each cell line are shown in FIG. 8.

[2] = test system: GPX4 and SEPHS2; test: Selenoprotein expression after selenite supplementation of media; conditions: selenite supplemented to media
[3] = test system: U251 cells; test: Selenite toxicity / growth in KO cells
Method: FIGS. 2A-D provide evidence that SEPHS2 plays a detoxifying role in U251 GBM cell line. (A) Knockdown of either SEPHS2 or SEPSECS can block selenoprotein expression. (B) However, only SEPHS2 KO has significant toxicity. (C) Model for ‘pushing’ toxicity in which if SEPHS2 plays a detoxifying role, its KO should synergize with increased selenited input. (D) Synergy is indeed seen with 12 uM selenite treatment in conjunction with SEPHS2 KO. Growth is normalized to the already lower growth rate of the SEPHS2 KO cells, thus the bars in asterisks indicate (statistically significant) synergy.
We had classified SEPHS2 as a putative detoxifier as its substrate, selenide, is the most toxic form of selenium^12. The notion of SEPHS2 as a detoxifier has not 1 0 previously been explored, and SEPHS2 is simply known for its enzymatic role (which cannot be replaced by its isoform, SEPHS1^13) as an intermediate step in producing selenocysteine for selenocysteinyl-tRNA production. The selenocysteine producing pathway is a simple and linear pathway starting from dietary selenite—or selenite or other inorganic forms which can be converted to selenite, selenite being the most common form^14,15. Selenite is imported and converted through in an unclear manner to form selenide, which is then metabolized by SEPHS2 to form selenophosphate, accompanied by ATP hydrolysis. […]

Row | SMILES | Viability of SEPHS2 KO cells relative to control KO cells under hydrogen selenide gas [1] | Expression of selenoproteins GPX4 and SEPHS2 [2] | Growth with selenite in conjunction with SEPHS2 KO ([3]; 12 uM selenite, U251, growth normalized to SEPHS2 KO cells) | Toxicity of high-dose selenite in SLC7A11 KO cells ([3]; 12 μM selenite, U251 cells, both guides against SLC7A11)
1 | [SeH2] [hydrogen selenide gas, hydrogen selenide] | hypersensitive | – | – | –
2 | O=[Se](O)O [selenite] | – | increased expression | Synergy | complete rescue
